This is an account of results in CN112159318A, “一种具有抗病毒活性的大叶桉酮及其制备方法和用途” (Kunming Institute of Botany of CAS, priority 2020, dated 2021).

A word on the IC50: it is the point on the concentration scale where inhibition reaches its midpoint. By EC50 is commonly meant the midpoint of the concentration-response curve. The low end stands for higher potency in that assay, the high end for lower potency in that assay. A word on the CC50: it is the concentration giving 50% cytotoxicity. Read a high CC50 as better tolerance by the cells.

“Also recorded” adds a separate entry of the source.

Series [1] relates to viral RNA polymerase [病毒RNA聚合酶]. The settings on record: adenosine analogue; cited from earlier work.
Series [2] deals with Zika virus [寨卡病毒]. The settings on record: cited from earlier work.
In series [3] the target is NS5 methyltransferase [NS5甲基转移酶]. The following applies: NS5 methyltransferase inhibitors; cited from earlier work.
The test system of a further series is ZIKV MR766. The series can be described thus: Plaque assay, ZIKV MR766 in Vero cells. Type of series: cell-based. The following applies: Zika virus, 96 h.
The subject of series [4] is ZIKV SZ-WIV01. The series can be described thus: Plaque assay, ZIKV SZ-WIV01 in Vero cells. Type of series: cell-based, Zika virus. The settings on record: for EC50: Zika virus, Vero, 96 h.
Series [5] can be described thus: MTT cytotoxicity in Vero cells. Type of series: cell-based, African green monkey. The settings on record: monkey.
The next series relates to Vero cells [Vero细胞]. The series can be described thus: MTT cytotoxicity in Vero cells. Type of series: cell-based, African green monkey. The following applies: Vero CC50 relative to anti-ZIKV EC50; strain not stated.
Series [6] relates to ZIKV SZ-WIV01. The series can be described thus: qRT-PCR of ZIKV RNA in supernatant of infected Vero cells. The settings on record: ZIKV SZ-WIV01 500 PFU, 3.125-25 μM, 48 h. Type of series: cell-based, Zika virus. (In general: In qPCR the cycle at which signal appears reflects the starting amount.)
In series [7] the test system is ZIKV. The series is described as follows: Internalization of ZIKV into host cells. Type of series: cell-based, Zika virus.
Series [8] concerns ZIKV SZ-WIV01. The series is described as follows: Immunofluorescence of ZIKV E protein positive Vero cells. Type of series: cell-based, Zika virus. The settings on record: ZIKV SZ-WIV01 MOI=1, 50 μM, 48 h, vs DMSO.
Series [9] concerns Gluc luciferase [荧光素酶Gluc]. The series is described as follows: Gluc activity in HEK-293T cells expressing only Gluc (counter-test). Type of series: cell-based.
Series [10] addresses T1, RNA-dependent RNA polymerase (RdRp) of ZIKV NS5 [ZIKV的RNA依赖的RNA聚合酶(RdRp)] (Zika virus, UniProt Q32ZE1).
T1 construct: 1μg ZIKV NS5载体共转染到HEK-293T细胞中; expressed in transfected cells; host or cells: HEK-293T
The series can be described thus: ZIKV NS5 RdRp activity, Gluc reporter in NS5-expressing HEK-293T cells. The settings on record: 24 h. Type of series: cell-based.

Another series deals with ZIKV NS5. The series is described as follows: Western blot of NS5 expression in HEK-293T cells. The following applies: 24 h. Type of series: cell-based, Zika virus.
The subject of series [11] is ZIKV. The series can be described thus: qRT-PCR of ZIKV replication in Huh-7 cells. Type of series: cell-based, Zika virus. The settings on record: human Huh-7 cells, 0.4-50 μM.
Series [12] concerns ZIKV SZ-WIV01. The series can be described thus: Time-of-addition assay, qRT-PCR, Vero cells. Type of series: cell-based, Zika virus. The settings on record: ZIKV SZ-WIV01 MOI=1, 50 μM.
Series [13] has as its system ZIKV SZ-WIV01. The series is described as follows: Adsorption (binding) assay, qRT-PCR of ZIKV on Vero cell surface. The settings on record: ZIKV SZ-WIV01 MOI=1, 50 μM, 4°C, 1 h, vs DMSO. Type of series: cell-based, Zika virus.
In series [14] the test system is ZIKV MR766 E protein [ZIKV E蛋白]. The series can be described thus: Western blot of ZIKV E protein expression. Type of series: cell-based, Zika virus. The following applies: 48 h. A general note: Immunoblotting shows a protein as a band on a membrane.
For series [15], the system named is ZIKV. The series is described as follows: qRT-PCR of ZIKV replication in A549 cells. Type of series: cell-based, Zika virus. The following applies: human A549 cells, 0.4-50 μM.
The next series concerns AXL. The series is described as follows: Flow cytometry of AXL expression on Vero cell surface. Type of series: cell-based, African green monkey. The following applies: Vero cells, 50 μM, 37°C 1 h, then ZIKV SZ-WIV01 MOI=1, 1 h. In general terms: Flow cytometry measures light scatter and fluorescence of single cells or particles in a stream.
Series [16] has as its system Zika virus [寨卡病毒]. The settings on record: cited from earlier work. This is another data set of the same source.

T1 sequence (Q32ZE1 2517-3419): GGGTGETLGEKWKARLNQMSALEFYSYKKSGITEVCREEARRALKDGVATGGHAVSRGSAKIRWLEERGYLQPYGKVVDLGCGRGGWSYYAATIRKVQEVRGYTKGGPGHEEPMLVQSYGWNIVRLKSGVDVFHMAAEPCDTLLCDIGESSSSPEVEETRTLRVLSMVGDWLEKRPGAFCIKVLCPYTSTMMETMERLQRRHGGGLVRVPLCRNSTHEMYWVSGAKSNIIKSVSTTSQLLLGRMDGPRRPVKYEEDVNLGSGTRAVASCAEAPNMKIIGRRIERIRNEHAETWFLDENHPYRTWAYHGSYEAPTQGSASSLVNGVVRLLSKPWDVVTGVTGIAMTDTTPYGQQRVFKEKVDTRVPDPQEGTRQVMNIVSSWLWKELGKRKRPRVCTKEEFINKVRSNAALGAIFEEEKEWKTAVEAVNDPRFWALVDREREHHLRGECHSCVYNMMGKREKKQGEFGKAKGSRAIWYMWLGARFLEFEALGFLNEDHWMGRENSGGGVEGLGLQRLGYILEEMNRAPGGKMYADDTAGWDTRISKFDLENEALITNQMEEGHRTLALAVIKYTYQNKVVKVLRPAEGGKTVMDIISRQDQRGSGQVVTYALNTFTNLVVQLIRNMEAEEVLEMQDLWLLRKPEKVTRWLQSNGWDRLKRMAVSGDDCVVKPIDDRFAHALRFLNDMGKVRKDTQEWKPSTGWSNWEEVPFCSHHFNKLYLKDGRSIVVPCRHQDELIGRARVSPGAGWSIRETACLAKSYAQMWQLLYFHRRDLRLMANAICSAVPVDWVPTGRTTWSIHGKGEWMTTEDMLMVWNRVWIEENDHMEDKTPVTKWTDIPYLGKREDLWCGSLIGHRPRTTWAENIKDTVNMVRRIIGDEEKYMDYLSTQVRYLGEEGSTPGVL

With `Nc1ncnc2c([C@@H]3N[C@H](CO)[C@@H](O)[C@H]3O)c[nH]c12` [BCX4430], the “inhibition of viral RNA polymerase function” value in series [1] is “能抑制病毒RNA聚合酶的功能”.
As to `Cc1c(-c2ccc(-c3ccccc3F)cc2)nc2ccc(F)cc2c1C(=O)O` [Brequinar], the anti-Zika virus activity result in the series on Zika virus [寨卡病毒] [2] is listed as “具有抗寨卡病毒活性”.
Consider `Nc1ncnc2c1ncn2[C@@H]1O[C@H](CSCC[C@H](N)C(=O)O)[C@@H](O)[C@H]1O` [S-腺苷基-同型半胱氨酸, S-adenosyl-L-homocysteine], for which the IC50 in series [3] was 0.43 µM.
With `NC(=O)c1ncn([C@@H]2O[C@H](CO)[C@@H](O)[C@H]2O)n1` [利巴韦林, reference compound], the values for the EC50 in the series with ZIKV MR766 and in the series on ZIKV SZ-WIV01 [4] were 58.8 ± 1.86 µM and 47.5 ± 4.73 µM, respectively. The anti-Zika virus activity result in the series on Zika virus [寨卡病毒] [2] was “具有抗寨卡病毒活性”.
In the case of `COc1cc(O)c(C(CC(C)C)c2c(O)cc(OC)c(C(=O)C(C)C)c2O)c(O)c1C(=O)C(C)C` [大叶桉酮G, Eucalyprobusone G], the selectivity ratio in series [5] (vero cells, Vero CC50 relative to anti-ZIKV EC50, strain not stated, read-out: therapeutic index) was over 49.5. The molecule also had a CC50 at 96 h in [5] (MTT, Vero cells, 4 days) of over 500 µM. In addition, in the series on Vero cells [Vero细胞], the therapeutic index is given as over 49.5. Also, the “inhibition of ZIKV RNA production” value in the series on ZIKV SZ-WIV01 [6] is on record as “以剂量依赖性的方式抑制ZIKV RNA的产生”. For the same molecule, the “internalization of ZIKV into host cells” value in the series with ZIKV [7] was “抑制ZIKV与宿主细胞的结合和内化”. Also, the results for the EC50 in the series on ZIKV MR766 and in the series with ZIKV SZ-WIV01 [4] were 0.43 ± 0.08 µM and 10.1 ± 3.84 µM, respectively. For the same molecule, in the series with ZIKV SZ-WIV01 [8], the “ZIKV E protein positive cells (immunofluorescence)” value is listed as “ZIKV E蛋白阳性细胞显著减少”. The “effect on Gluc activity in cells expressing only Gluc” value in series [9] is on record as “对荧光素酶的活性没有影响; also recorded: 对Gluc的活性没有影响”. In addition, in [10] (10 μmol/L), the “inhibition of NS5-induced increase in Gluc activity” value is “几乎完全抑制”. Further, the “inhibition of Gluc activity in NS5-expressing cells (RdRp activity)” value in series [10] (1.25-10 μM) is “以剂量依赖性的方式抑制了表达NS5的细胞中的荧光素酶Gluc的活性; also recorded: 可以抑制NS5中RdRp结构域的活性; also recorded: 呈剂量依赖型方式降低Gluc的活性”. Moreover, the “effect on NS5 expression” value with ZIKV NS5 is listed as “不影响NS5的表达; also recorded: 对NS5的表达没有影响”. In addition, the “inhibition of ZIKV replication” value in the series on ZIKV [11] and in the series on ZIKV [15] was “以剂量依赖型方式抑制两种人源细胞中ZIKV的复制” each time. Moreover, in the series on ZIKV SZ-WIV01 [12] (added 0-12 h post infection), the “stage of viral life cycle acted on” value is listed as “主要抑制ZIKV RNA的合成”. The “inhibition of ZIKV replication when added 6 h post infection” value in the series with ZIKV SZ-WIV01 [12] (supernatant at 24 h) is reported as “显著抑制了ZIKV的复制”. Also, the “ZIKV adsorption (binding) to host cells” value in the series on ZIKV SZ-WIV01 [13] was “抑制了ZIKV的吸附; also recorded: 抑制ZIKV与宿主细胞的结合”. The “inhibition of ZIKV-induced plaque formation” value in the series on ZIKV SZ-WIV01 [4] (Vero cells, 3.125-25 μM, vs DMSO) is “以剂量依赖方式抑制ZIKV感染诱导的噬斑形成”. Also, the “anti-Zika virus activity compared with positive control ribavirin” value in the series on ZIKV SZ-WIV01 [4] (plaque assay, ZIKV SZ-WIV01 and ZIKV MR766) is on record as “优于阳性对照药利巴韦林; also recorded: 显著高于阳性对照药利巴韦林”. The “expression of ZIKV E protein (Western blot)” value in series [14] (ZIKV MR766, 2 μM or higher) is reported as “几乎完全抑制了E蛋白的表达”. In addition, in series [14] (ZIKV MR766, 0.08-50 μM), the “expression of ZIKV E protein (Western blot), concentration dependence” value is on record as “随着大叶桉酮G浓度的增加,ZIKV E蛋白的表达逐渐被抑制”. Moreover, in the series on AXL, the AXL expression result is “不影响AXL的表达”.
For the molecule `Cc1ccc(C(=O)Nc2ccc(S(=O)(=O)O)c3cc(S(=O)(=O)O)cc(S(=O)(=O)O)c23)cc1NC(=O)c1cccc(NC(=O)Nc2cccc(C(=O)Nc3cc(C(=O)Nc4ccc(S(=O)(=O)O)c5cc(S(=O)(=O)O)cc(S(=O)(=O)O)c45)ccc3C)c2)c1` [苏拉明], the “effect on Zika virus binding and attachment to host cells” value with Zika virus [寨卡病毒] [16] is “可以影响寨卡病毒的结合以及与宿主细胞的附着”.
For `Nc1ncnc2c1ncn2[C@@H]1O[C@H](C[C@@H](N)CC[C@H](N)C(=O)O)[C@@H](O)[C@H]1O` [西奈芬净, Sinefungin], the IC50 in series [3] was 1.18 µM.
In the case of `COc1c(C)c2c(c(O)c1C/C=C(\C)CCC(=O)O)C(=O)OC2` [麦考酚酸], in the series on Zika virus [寨卡病毒] [2], the anti-Zika virus activity entry was “具有抗寨卡病毒活性”.
